Laboratory results published in patent US9096560B2, “5-heterocyclylalkyl-3-hydroxy-2-phenylcyclopent-2-enones as herbicides” (Syngenta Limited, priority 2008, dated 2015).

What was measured:
Format in all cases: in vivo
[1] = test system: Winter Wheat variety 'Hereward' seed treated with cloquintocet mexyl; test: Example C crop damage test on Winter Wheat seed treated with safener cloquintocet mexyl, post-emergence; details: rate 250 g/ha, seed treated with cloquintocet mexyl 0.5 grams per kilogram of dry seed, evaluated after 13 days
Experimental: Seeds of the Winter Wheat variety ‘Hereward’ were seed treated with a wettable powder formulation of the cereal herbicide safener, cloquintocet mexyl, at a rate of 0.5 grams per kilogram of dry seed prior to the initiation of glasshouse testing. One seed was sown per 1.5 inch plastic pot into a sandy loam soil at a depth of 1 cm, 8 days prior to application of the test compounds and was watered and grown under controlled conditions in a glasshouse (at 24/16° C., day/night; 14 hours light; 65% humidity). The plants were sprayed Post-emergence with an aqueous spray solution derived from the formulation of the technical active ingredient in acetone/water (50:50) solution containing 0.5% Tween 20 (polyoxyethelyene sorbitan monolaurate, CAS RN 9005-64-5). The test plants were then grown in a glasshouse under controlled conditions in a glasshouse (at 24/16° C., day/night; 14 hours light; 65% humidity) and watered twice daily. After 13 days for pre and post-emergence, the test was evaluated (100=total damage to plant; 0=no damage to plant).

[2] = test system: Alopecurus myosuroides (ALOMY); test: Example B post-emergence herbicidal test, ALOMY; details: Alopecurus myosuroides, 312 h, rate 250 g/ha, evaluated after 13 days, scale 0-100, read-out: Post-emergence activity ALOMY (100=total damage to plant; 0=no damage to plant)
Method in brief: (§1)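 Foliar application to 8-day-old pot-grown seedlings in a glasshouse (24/16 °C, 14 h photoperiod, 65% humidity). Spray solution was derived from an acetone/water (50:50) formulation with 0.5% Tween 20. Injury was assessed 13 days later on a 0–100 scale.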

[3] = test system: Winter Wheat variety 'Hereward'; test: Example C crop damage test on Winter Wheat, post-emergence, no safener; details: Triticum aestivum, 312 h, rate 250 g/ha, evaluated after 13 days, read-out: Winter Wheat (Hereward) damage (100=total damage to plant; 0=no damage to plant)
Experimental: Seeds of the Winter Wheat variety ‘Hereward’ were sown in standard soil in pots. After 8 days cultivation under controlled conditions in a glasshouse (at 24/16° C., day/night; 14 hours light; 65% humidity), the plants were sprayed with an aqueous spray solution derived from the formulation of the technical active ingredient in acetone/water (50:50) solution containing 0.5% Tween 20 (polyoxyethelyene sorbitan monolaurate, CAS RN 9005-64-5). The test plants were then grown in a glasshouse under controlled conditions in a glasshouse (at 24/16° C., day/night; 14 hours light; 65% humidity) and watered twice daily. After 13 days for pre and post-emergence, the test was evaluated (100=total damage to plant; 0=no damage to plant).

Avena fatua (AVEFA) [4] = test: Example B post-emergence herbicidal test, AVEFA; details: Avena fatua, 312 h, rate 250 g/ha, evaluated after 13 days, scale 0-100, read-out: Post-emergence activity AVEFA (100=total damage to plant; 0=no damage to plant)
Method in brief: as §1

Avena fatua (AVEFA) [5] = test: Example B pre-emergence herbicidal test, AVEFA; details: Avena fatua, 312 h, rate 250 g/ha, evaluated after 13 days, 100=total damage to plant, 0=no damage to plant
Method in brief: (§2)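 Plants were rated 13 days after treatment, 0 = no damage to 100 = total damage. They were grown in a glasshouse at 24/16 °C, 14 h light, 65% humidity and watered twice daily. Pre-emergence spray was applied one day after sowing, formulated in acetone/water 50:50 with 0.5% Tween 20.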

[6] = test system: Alopecurus myosuroides (ALOMY); test: Example B pre-emergence herbicidal test, ALOMY; details: Alopecurus myosuroides, 312 h, rate 250 g/ha, evaluated after 13 days, 100=total damage to plant, 0=no damage to plant
Method in brief: as §2

Lolium perenne (LOLPE) [7] = test: Example B pre-emergence herbicidal test, LOLPE; details: Lolium perenne, 312 h, rate 250 g/ha, evaluated after 13 days, 100=total damage to plant, 0=no damage to plant
Method in brief: as §2

[8] = test system: Echinochloa crus-galli (ECHCG); test: Example B post-emergence herbicidal test, ECHCG; details: Echinochloa crus-galli, 312 h, rate 250 g/ha, evaluated after 13 days, scale 0-100, read-out: Post-emergence activity ECHCG (100=total damage to plant; 0=no damage to plant)
Method in brief: as §1

Lolium perenne (LOLPE) [9] = test: Example B post-emergence herbicidal test, LOLPE; details: Lolium perenne, 312 h, rate 250 g/ha, evaluated after 13 days, scale 0-100, read-out: Post-emergence activity LOLPE (100=total damage to plant; 0=no damage to plant)
Method in brief: as §1

[10] = test system: Echinochloa crus-galli (ECHCG); test: Example B pre-emergence herbicidal test, ECHCG; details: Echinochloa crus-galli, 312 h, rate 250 g/ha, evaluated after 13 days, 100=total damage to plant, 0=no damage to plant
Method in brief: as §2

For Cc1cc(C)c(C2=C(OC(=O)OC(C)C)CC(CC3CCOCC3)C2=O)c(C)c1 (stereo not shown) [Compound P43], the “Winter Wheat (Hereward) + cloquintocet mexyl damage (100=total damage to plant; 0=no damage to plant)” value [1] was 40, the pest or weed control at 250 g/ha [2] was 100% and the crop damage to winter wheat at 250 g/ha [3] was 50%. It also gave a pest or weed control at 250 g/ha (Avena fatua (AVEFA) [4]) of 90%, a pest or weed control at 250 g/ha (Avena fatua (AVEFA) [5]) of 100% and a pest or weed control at 250 g/ha [6] of 100%. It also gave a pest or weed control at 250 g/ha (Lolium perenne (LOLPE) [7]) of 100%, a pest or weed control at 250 g/ha [8] of 100% and a pest or weed control at 250 g/ha (Lolium perenne (LOLPE) [9]) of 100%. For the same compound, the pest or weed control at 250 g/ha [10] was 100%.
Cc1cc(C)c(C2=C(OC(=O)c3ccccc3)CC(CC3CCOCC3)C2=O)c(C)c1 (stereo not shown) [Compound P44] was tested, and the “Winter Wheat (Hereward) + cloquintocet mexyl damage (100=total damage to plant; 0=no damage to plant)” value [1] was 40, the pest or weed control at 250 g/ha [2] was 100% and the crop damage to winter wheat at 250 g/ha [3] was 70%. The pest or weed control at 250 g/ha (Avena fatua (AVEFA) [4]) was 100%, the pest or weed control at 250 g/ha (Avena fatua (AVEFA) [5]) was 90% and the pest or weed control at 250 g/ha [6] was 100%. It also gave a pest or weed control at 250 g/ha (Lolium perenne (LOLPE) [7]) of 100%, a pest or weed control at 250 g/ha [8] of 100% and a pest or weed control at 250 g/ha (Lolium perenne (LOLPE) [9]) of 100%. For the same compound, the pest or weed control at 250 g/ha [10] was 100%.
CON1CCC(CC2CC(OC(=O)OC(C)C)=C(c3c(C)cc(C)cc3C)C2=O)CC1 (stereo not shown) [Compound P56] was tested, and the “Winter Wheat (Hereward) + cloquintocet mexyl damage (100=total damage to plant; 0=no damage to plant)” value [1] was 60, the pest or weed control at 250 g/ha [2] was 90% and the crop damage to winter wheat at 250 g/ha [3] was 90%. For the same compound, the pest or weed control at 250 g/ha (Avena fatua (AVEFA) [4]) was 100%, the pest or weed control at 250 g/ha (Avena fatua (AVEFA) [5]) was 90% and the pest or weed control at 250 g/ha [6] was 100%. The pest or weed control at 250 g/ha (Lolium perenne (LOLPE) [7]) was 100%, the pest or weed control at 250 g/ha [8] was 90% and the pest or weed control at 250 g/ha (Lolium perenne (LOLPE) [9]) was 100%. For the same compound, the pest or weed control at 250 g/ha [10] was 100%.
With Cc1cc(C)c(C2C(=O)C/C(=C\C3CCS(=O)(=O)CC3)C2=O)c(C)c1 (stereo not shown) [Compound T10] the “Winter Wheat (Hereward) + cloquintocet mexyl damage (100=total damage to plant; 0=no damage to plant)” value [1] was 20, the pest or weed control at 250 g/ha [2] was 70% and the crop damage to winter wheat at 250 g/ha [3] was 60%. The pest or weed control at 250 g/ha (Avena fatua (AVEFA) [4]) was 80%, the pest or weed control at 250 g/ha (Avena fatua (AVEFA) [5]) was 40% and the pest or weed control at 250 g/ha [6] was 70%. The pest or weed control at 250 g/ha (Lolium perenne (LOLPE) [7]) was 90%, the pest or weed control at 250 g/ha [8] was 80% and the pest or weed control at 250 g/ha (Lolium perenne (LOLPE) [9]) was 70%. The pest or weed control at 250 g/ha [10] was 70%.
In the case of CCc1cc(C)cc(CC)c1C1C(=O)C(CC2CCOCC2)C(CC2CCOCC2)C1=O (stereo not shown) [Compound T12], the “Winter Wheat (Hereward) + cloquintocet mexyl damage (100=total damage to plant; 0=no damage to plant)” value [1] is reported as 60, the pest or weed control at 250 g/ha [2] is reported as 100% and the crop damage to winter wheat at 250 g/ha [3] is reported as 70%. It also gave a pest or weed control at 250 g/ha (Avena fatua (AVEFA) [4]) of 100%, a pest or weed control at 250 g/ha (Avena fatua (AVEFA) [5]) of 100% and a pest or weed control at 250 g/ha [6] of 100%. It also gave a pest or weed control at 250 g/ha (Lolium perenne (LOLPE) [7]) of 100%, a pest or weed control at 250 g/ha [8] of 100% and a pest or weed control at 250 g/ha (Lolium perenne (LOLPE) [9]) of 100%. It also gave a pest or weed control at 250 g/ha [10] of 100%.
Cc1cc(C)c(C2C(=O)C/C(=C\C3CCCOC3)C2=O)c(C)c1 (stereo not shown) [Compound T14] was tested, and the “Winter Wheat (Hereward) + cloquintocet mexyl damage (100=total damage to plant; 0=no damage to plant)” value [1] was 60, the pest or weed control at 250 g/ha [2] was 100% and the crop damage to winter wheat at 250 g/ha [3] was 80%. For the same compound, the pest or weed control at 250 g/ha (Avena fatua (AVEFA) [4]) was 100%, the pest or weed control at 250 g/ha (Avena fatua (AVEFA) [5]) was 100% and the pest or weed control at 250 g/ha [6] was 100%. The pest or weed control at 250 g/ha (Lolium perenne (LOLPE) [7]) was 100%, the pest or weed control at 250 g/ha [8] was 100% and the pest or weed control at 250 g/ha (Lolium perenne (LOLPE) [9]) was 100%. It also gave a pest or weed control at 250 g/ha [10] of 100%.
Cc1cc(C)c(C2C(=O)CC(CC3CCCOC3)C2=O)c(C)c1 (stereo not shown) [Compound T16] was tested, and the “Winter Wheat (Hereward) + cloquintocet mexyl damage (100=total damage to plant; 0=no damage to plant)” value [1] was 20, the pest or weed control at 250 g/ha [2] was 100% and the crop damage to winter wheat at 250 g/ha [3] was 80%. It also gave a pest or weed control at 250 g/ha (Avena fatua (AVEFA) [4]) of 100%, a pest or weed control at 250 g/ha (Avena fatua (AVEFA) [5]) of 80% and a pest or weed control at 250 g/ha [6] of 100%. It also gave a pest or weed control at 250 g/ha (Lolium perenne (LOLPE) [7]) of 100%, a pest or weed control at 250 g/ha [8] of 100% and a pest or weed control at 250 g/ha (Lolium perenne (LOLPE) [9]) of 100%. For the same compound, the pest or weed control at 250 g/ha [10] was 100%.
